According to EP0140270A2 (priority 1983, dated 1985):
Read-outs that look alike come from different tables or passages of the source.

What was measured:
Format in all cases: in vivo
Pyricularia oryzae [1] = settings: protective; young rice plants sprayed to dripping wet, then inoculated; evaluated 4 days after inoculation; compared with prior art (Zinkethylen-1,2-bis-dithiocarbamat)
Pyricularia oryzae [2] = settings: systemic; 40 ml preparation poured on soil of young rice plants; inoculated 7 days after treatment; evaluated 4 days after inoculation; compared with prior art (Zinkethylen-1,2-bis-dithiocarbamat)
Phytophthora infestans = settings: curative; young tomato plants inoculated, sprayed after 7 hours incubation; evaluated 3 days after inoculation; compared with prior art (Zinkethylen-1,2-bis-dithiocarbamat)

Row | Compound | Wirksamkeit (Krankheitsbefall) (Pyricularia oryzae [1]) | Wirksamkeit (Krankheitsbefall) (Pyricularia oryzae [2]) | Wirksamkeit (Phytophthora infestans)
1 | CCOC(=O)CC(C)(C)C#CC(=O)OCCI [Beispiel 4, 3,3-DimethyL-5-iodethoxycarbonyl-pent-4-insäureethylester] | deutliche Überlegenheit in der Wirksamkeit gegenüber dem Stand der Technik | deutliche Überlegenheit in der Wirksamkeit gegenüber dem Stand der Technik | –
2 | C#CC(C)(C)C(C(=O)OC)C(=O)OC [Beispiel 1, 3,3-Dimethyl-2-methoxycarbcnyL-pent-4-insäuremethylester] | – | deutliche Überlegenheit in der Wirksamkeit gegenüber dem Stand der Technik | –
3 | C#CC(C)(C)C(C(N)=O)C(=O)OCC (centres unmarked) [Beispiel 3, 3,3-Dimethyl-2-etrcry-carbonyl-pent-4-insaureamid] | deutliche Überlegenheit in der Wirksamkeit gegenüber dem Stand der Technik | – | deutliche Überlegenheit in der Wirksamkeit gegenüber dem Stand der Technik
4 | C#CC(C)(C)C(C(=O)O)C(=O)OCC (centres unmarked) [Beispiel 2, 3,3-Dimethyl-2-ethoxycarbonyl-pent-4-insäure] | deutliche Überlegenheit in der Wirksamkeit gegenüber dem Stand der Technik | deutliche Überlegenheit in der Wirksamkeit gegenüber dem Stand der Technik | –
5 | C#CC(C)(C)C(C(=O)OCC)C(=O)OCC [Beispiel 20, 3,3-Dimethyl-2-ethoxycarbonyl-pent-4-insäureethylester] | – | deutliche Überlegenheit in der Wirksamkeit gegenüber dem Stand der Technik | –
